Source: article PMC5001616 (Nucleic Acids Research, 2016)
Where “and” joins values, the source holds several entries; their conditions need not be identical. Equal entries are not always repeated. Where two headings read alike, the source gives them in different places.

How the values were obtained:
WT HIV-1 intasome = conditions: cited from earlier work
WT HIV-1 IN [1] = target: T1, WT HIV-1 IN (Human immunodeficiency virus type 1 group M subtype B, UniProt P12497); assay: 3'-processing (3'-P) inhibition, recombinant WT IN, gel-based; assay type: biochemical
T1 construct: we tested the 3′-P activity of WT and SH mutant integrases; made in house
Protocol: (§1) Oligonucleotides harboring a tetrahydrofuran group in place of the nucleobase at position −1 (21Ab-1, […]_GT), at position +1 (21Ab+1, […]_T), position +2 (21Ab+2, […]_) and in place of the last 2 bases (21-2Ab, […]__) were purchased from Eurogentec with PAGE purification. 5’-Labeling was performed using T4 polynucleotide kinase (New England Biolabs, Ipswich, MA, USA) with [γ-^32P]-ATP (Perkin-Elmer Life and Analytical Sciences, Boston, MA, USA) according to the manufacturers’ instructions. Unincorporated isotopes were removed using the Mini Quick spin oligo columns (Roche). Duplex substrates were obtained by annealing ‘top’ (21t or 19t) and ‘bottom’ (21b) oligonucleotides at equimolar ratio.
(§2) WT and mutant INs were purified and their enzymatic activities measured as previously reported ([11]). […] 3′-P and ST reactions were performed at 37°C for 120 min unless otherwise indicated.
(§3) Linear regressions, fit curves, IC50 determinations, standard deviations, standard error of the mean and statistical analyses (P-values) were generated using GraphPad Prism software 5.0c. Pearson and Spearman correlations were determined using the following equation: […]

[2] = target: G140S-Q148H (SH) mutant HIV-1 IN (Human immunodeficiency virus type 1 group M subtype B, UniProt P12497, G1287S/Q1295H); conditions: abasic substrates vs normal substrate
Protocol: as §1, §2, §3

WT HIV-1 IN [3] = target: T1, WT HIV-1 IN; conditions: read-out: IC50, inhibition of ST; cited from earlier work

## C[C@@H]1CCO[C@H]2Cn3cc(C(=O)NCc4ccc(F)cc4F)c(=O)c(O)c3C(=O)N12 [DTG, dolutegravir]
WT HIV-1 intasome; longer than EVG
  Time bound to the WT HIV-1 intasome relative to EVG: 26 fold
WT HIV-1 intasome; longer than RAL
  Time bound to the WT HIV-1 intasome relative to RAL: 8 fold
WT HIV-1 IN [1]; IC50 for 3'-P divided by IC50 for ST
  Selectivity index (SI) for 3'-P/ST: 50
WT HIV-1 IN [1]; read-out: IC50, inhibition of 3'-P, canonical CAGT substrate, 120 min
  IC50: 1640 nM and 1600 nM
[2]
  Increase of IC50 for 3'-P on removing either the -1 or +1 base: about 100 fold
WT HIV-1 IN [3]
  IC50: 33 nM
